According to US20240240126A1, “Microfluidic Barcode-Like Cell Sensor For Microscope-Free Quantitative Detection Of Small Amount Of Cells” (Hong Kong Baptist University, priority 2021, published 2024):
In brackets after ≈: the same amount, converted by molar mass.

Assays:
Isolate 5 = assay: Broth microdilution AST of drinking water isolate; type: cell-based, Staphylococcus epidermidis; parameters: key: R stands for resistant; settings: Isolate 5 from drinking water samples
Description: (§1) All tested samples were collected between June 2019 to November 2019 according to the guidelines from ISO 18593:2018 Microbiology of the food chain—Horizontal methods for surface sampling. Also, all of the samples were collected from the drinking fountains in government venues and university facilities, at ten different locations. As said, the surface of the outlet for the drinking fountains was tested by swabbing. In simple words, the surfaces of the drinking fountain's outlet were rubbed by a single use sterilize cotton swab and swished into the Lysogeny broth (LB) broth solution for 1 minute to prepare the sample solutions. Collected samples were kept at 4° C. during the transportation and enriched for 12-14 hours under 37° C. After the enrichment for bacteria, the sample suspensions were spread and streaked onto the LB agar for further bacterial isolation and AST uses. […] If an ID is needed, dilution plating can be used. Besides, antifungals and algal inhibitors can also be added into these samples to against and inhibit the growth of fungi, yeast, and algae.
(§2) All tested samples were collected from drinking fountains at ten different locations in various government venues and university facilities. Sample containers were kept sterile before use in sample collection; the collected samples were kept at 4° C. and analyzed within 24 hours of collection. Sample collection was conducted 3 times for each sampling site and the antimicrobial susceptibility of each sample was tested 3 times. (FIG. 5) Bacterial identification for the real samples was made through the use of Matrix-Assisted Laser Desorption Ionization Time of Flight Imaging Mass Spectrometry (MALDI-TOF IMS). 1 uL of the sample was pipetted onto an Indium tin oxide (ITO) coated glass slide and allowed to dry on a hotplate; the ITO slide with bacteria was then analyzed by MALDI-TOF IMS immediately following matrix application. (FIG. 6, Table 2)
(§3) The broth microdilution (BMD) testing of the samples was performed exactly the same according to the approved standard from CLSI and the procedures described in Nature Protocol. To perform the BMD test, both LB broth medium and the antibiotics were added into the 96-wells microplate. By using a two-fold dilution, a concentration gradient of the antibiotic is generated from 128 μg/mL to 0.125 μg/mL. […] To assess the MIC values for the samples, the microplates were examined visually and the lowest concentration of the antibiotic which prevents visible growth of the bacteria was recorded as the MIC value of that sample. […]

Isolate 1 = assay: Broth microdilution AST of drinking water isolate; type: cell-based, Staphylococcus epidermidis; parameters: key: R stands for resistant; settings: Isolate 1 from drinking water samples
Description: as §1, §2, §3

S. aureus [1] = assay: AST with the present barcode cell sensor (PP microfluidic AST chip); type: cell-based, Staphylococcus aureus (ATCC 29213)
Description: (§4) To conduct an AST on the PP-based AST chip, bacteria were pre-activated inside an incubator for 15 minutes at 37° C. before use. At the beginning of a test, the bacteria are injected through Inlet 3; the injection of the bacteria was monitored under the fluorescence microscope (FIG. 24A). After the bacteria were inoculated into the cultivation chambers, antibiotic-doped media and media alone are injected into inlet 1 and inlet 2 at a rate of 1 μL/minute, respectively (FIG. 24B). The AST chip was then incubated on a thermostat platform at 37° C. for 2 hours. To assess AMR, the bacteria inside the culture chambers of the PP AST chip were flushed into the barcode cell sensor at a rate of 1 μL/minute. Gram staining agent was used during the flushing process to make bacteria inside the barcode cell sensor visible be captured by a cell phone camera. For comparison, AST was also performed using the traditional broth microdilution method as shown in FIG. 27; the MIC values of the bacteria were assessed as the lowest concentration of antibiotics with no visible growth of bacteria.

mixed bacteria sample = assay: Broth microdilution AST of mixed bacteria sample; type: cell-based
Description: (§5) The broth microdilution (BMD) testing of the samples was performed exactly the same according to the approved standard from CLSI and the procedures described in Nature Protocol. To perform the BMD test, both LB broth medium and the antibiotics were added into the 96-wells microplate. By using a two-fold dilution, a concentration gradient of the antibiotic is generated from 128 μg/mL to 0.125 μg/mL. The bacteria isolates identified inside the samples have been enriched under 37° C. for 8-12 hrs in order to achieve 5×10^6 CFU/mL before the test, 10 uL of the bacterial suspension was inoculated into the broth to achieve a final concentration of bacteria in 5×10^5 CFU/mL. The inoculated microplates were incubated at 37° C. for 16-20 hrs for further inspection. To assess the MIC values for the samples, the microplates were examined visually and the lowest concentration of the antibiotic which prevents visible growth of the bacteria was recorded as the MIC value of that sample. Meanwhile, Mueller Hinton broth was also used to perform the BMD for cross checking purpose; both of the AST results are consistence with the MIC quality control range recommended by CLSI.
(§6) According to the AST results of the present disclosure, all those identified isolates (isolates 1-8) have shown susceptibility to Gentamicin where all of them are resistant to Ampicillin at the same time. […]

S. aureus [2] = settings: CLSI reference range; cited from earlier work
E. coli [3] = assay: Broth microdilution AST; type: cell-based, Escherichia coli (ATCC 25922)
Description: as §4, with “Gram staining agent was used during the flushing process to make bacteria inside the barcode cell sensor visible be captured by a cell phone camera.” left out
(§7) The broth microdilution (BMD) testing of the samples was performed exactly the same according to the approved standard from CLSI and the procedures described in Nature Protocol. […] To assess the MIC values for the samples, the microplates were examined visually and the lowest concentration of the antibiotic which prevents visible growth of the bacteria was recorded as the MIC value of that sample.

[4] = system: identified isolates (isolates 1-8); assay: AST of the identified drinking water isolates, overall statement; type: cell-based; settings: all identified isolates 1-8
Description: as §5, §6

Isolate 8 = assay: Broth microdilution AST of drinking water isolate; type: cell-based, Staphylococcus capitis; parameters: key: R stands for resistant; settings: Isolate 8 from drinking water samples
Description: as §1, §2, §5
(§8) Based on the findings in the present disclosure, multiple bacterial species have been recognized in the testing samples, including bacterial species that have the potential to form biofilm and colonize on the surface of the water dispenser (Table 2). Traditional broth microdilution AST was also performed to verify the AMR assessment results of the present sensor according to the approved standard from CLSI (FIGS. 27A and 27B, Table 4). […] As AMR microbes can exist in the environment all around us, close enough to come into contact with in daily life, they may pose a significant threat to the effective treatment of bacterial infections in the near future if no action is taken. […]

Isolate 3 = assay: Broth microdilution AST of drinking water isolate; type: cell-based, Staphylococcus capitis; parameters: key: R stands for resistant; settings: Isolate 3 from drinking water samples
Description: as §1, §2, §5, §8

Isolate 4 = assay: Broth microdilution AST of drinking water isolate; type: cell-based, Staphylococcus capitis; parameters: key: R stands for resistant; settings: Isolate 4 from drinking water samples
Description: as §1, §2, §5, §8

S. aureus [5] = assay: Broth microdilution AST; type: cell-based, Staphylococcus aureus (ATCC 29213)
Description: as §4, with “Gram staining agent was used during the flushing process to make bacteria inside the barcode cell sensor visible be captured by a cell phone camera.” left out
as §7

Isolate 6 = assay: Broth microdilution AST of drinking water isolate; type: cell-based, Citrobacter youngae; parameters: key: R stands for resistant; settings: Isolate 6 from drinking water samples
Description: as §1, §2, §5, §8

Isolate 2 = assay: Broth microdilution AST of drinking water isolate; type: cell-based, Citrobacter youngae; parameters: key: R stands for resistant; settings: Isolate 2 from drinking water samples
Description: as §1, §2, §5, §8

Isolate 7 = assay: Broth microdilution AST of drinking water isolate; type: cell-based, Citrobacter youngae; parameters: key: R stands for resistant; settings: Isolate 7 from drinking water samples
Description: as §1, §2, §5, §8

E. coli [6] = settings: CLSI reference range; cited from earlier work
E. coli [7] = assay: AST with the present barcode cell sensor (PP microfluidic AST chip); type: cell-based, Escherichia coli (ATCC 25922)
Description: as §4, with “Gram staining agent was used during the flushing process to make bacteria inside the barcode cell sensor visible be captured by a cell phone camera.” left out
As said, the bacteria samples have been flushed into the “barcode” cell sensor after 2 hours incubation, the accumulated bacteria bars with different lengths will be formed. […] Thus, the MIC value of the samples can be assessed by looking at the point (in a specific concentration of a given antibiotic) of the bacterial growth with significant differences using the comparison of the log [slope] values. […]

Molecule | AST result (MIC) (Isolate 5) | AST result (MIC) (Isolate 1) | MIC-"barcode" Chip (S. aureus [1]) | MIC value (mixed bacteria sample; FIG. 27A) | MIC-CLSI (S. aureus [2]) | MIC-Broth Microdilution (E. coli [3]) | AST result in words (susceptibility / resistance) [4] | AST result (MIC) (Isolate 8) | AST result (MIC) (Isolate 3) | AST result (MIC) (Isolate 4) | MIC-Broth Microdilution (S. aureus [5]) | AST result (MIC) (Isolate 6) | AST result (MIC) (Isolate 2) | AST result (MIC) (Isolate 7) | MIC-CLSI (E. coli [6]) | AST result in words (mixed bacteria sample; FIG. 27B) | MIC (S. aureus [1]; Staphylococcus aureus) | MIC-"barcode" Chip (E. coli [7]) | MIC (S. aureus [5]; Staphylococcus aureus)
Gentamicin | 4 µg/mL | 4 µg/mL | 0.25 to 0.5 µg/mL | 4 to 8 µg/mL | 0.12 to 1 µg/mL | 0.25 to 0.5 µg/mL | susceptibility | 16 to 32 µg/mL | 16 µg/mL | 16 to 32 µg/mL | 0.25 to 0.5 µg/mL | 2 to 4 µg/mL | 16 µg/mL | 16 to 32 µg/mL | 0.25 to 1 µg/mL |  |  |  | 
CC1(C)S[C@@H]2[C@H](NC(=O)[C@H](N)c3ccccc3)C(=O)N2[C@H]1C(=O)O [Ampicillin] | R | R |  |  | 0.5 to 2 µg/mL |  | resistant | R | R | R |  | R | R | R | 2 to 8 µg/mL | resistance |  |  | 
CC[C@H]1OC(=O)[C@H](C)[C@@H](O[C@H]2C[C@@](C)(OC)[C@@H](O)[C@H](C)O2)[C@H](C)[C@@H](O[C@@H]2O[C@H](C)C[C@H](N(C)C)[C@H]2O)[C@](C)(O)C[C@@H](C)C(=O)[C@H](C)[C@@H](O)[C@]1(C)O [Erythromycin, erythromycin] |  |  |  |  | 0.25 to 1 µg/mL | Resistant |  |  |  |  |  |  |  |  | Resistant |  | 0.4 to 0.6 µg/mL (≈ 0.545 to 0.818 µM) | Resistant | 0.25 to 1 µg/mL (≈ 0.341 to 1.36 µM)
